Experimental findings from ChEMBL document CHEMBL3525953, “In vitro cytochrome P450-mediated metabolism of exemestane” (Drug Metab Dispos, 2011) are described below.

Common to all, as to type: ADME
In one data set the target is T1, Cytochrome P450 1A1 (Homo sapiens, UniProt P04798).
T1 sequence (P04798 whole entry): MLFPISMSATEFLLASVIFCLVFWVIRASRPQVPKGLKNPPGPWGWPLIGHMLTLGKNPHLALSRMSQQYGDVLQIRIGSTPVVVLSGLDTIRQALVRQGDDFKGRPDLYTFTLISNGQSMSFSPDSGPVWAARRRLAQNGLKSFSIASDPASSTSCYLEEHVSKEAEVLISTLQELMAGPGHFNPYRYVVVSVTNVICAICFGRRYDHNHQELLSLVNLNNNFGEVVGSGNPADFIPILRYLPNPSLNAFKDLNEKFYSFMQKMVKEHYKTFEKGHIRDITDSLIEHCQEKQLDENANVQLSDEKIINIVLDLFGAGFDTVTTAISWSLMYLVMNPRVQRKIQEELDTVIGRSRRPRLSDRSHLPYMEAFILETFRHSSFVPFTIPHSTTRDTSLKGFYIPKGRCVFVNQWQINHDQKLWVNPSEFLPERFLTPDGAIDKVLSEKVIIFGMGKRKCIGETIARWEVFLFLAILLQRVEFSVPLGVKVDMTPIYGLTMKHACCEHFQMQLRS
Put plainly: Drug metabolism assessed as human recombinant CYP1A1-mediated 17-hydroexemestane formation rate per pmol of enzyme at 10 uM after 10 mins.

In another data set the target is T2, Cytochrome P450 2A6 (Homo sapiens, UniProt P11509).
T2 sequence (P11509 whole entry): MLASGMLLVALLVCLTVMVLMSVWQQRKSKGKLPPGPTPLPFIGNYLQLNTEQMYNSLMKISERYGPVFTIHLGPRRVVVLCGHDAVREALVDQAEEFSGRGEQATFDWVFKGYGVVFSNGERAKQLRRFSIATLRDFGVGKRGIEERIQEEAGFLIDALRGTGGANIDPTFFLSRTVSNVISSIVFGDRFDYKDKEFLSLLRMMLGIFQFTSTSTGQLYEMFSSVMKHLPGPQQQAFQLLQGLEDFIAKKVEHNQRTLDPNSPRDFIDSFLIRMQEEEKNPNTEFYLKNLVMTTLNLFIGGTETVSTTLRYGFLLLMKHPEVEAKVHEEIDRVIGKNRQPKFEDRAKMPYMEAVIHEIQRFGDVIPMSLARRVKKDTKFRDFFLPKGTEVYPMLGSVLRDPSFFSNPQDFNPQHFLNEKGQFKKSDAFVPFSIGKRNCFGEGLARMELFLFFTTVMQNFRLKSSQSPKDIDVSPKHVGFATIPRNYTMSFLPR
The data set can be described thus: Drug metabolism assessed as human recombinant CYP2A6-mediated 17-hydroexemestane formation rate per pmol of enzyme at 10 uM after 10 mins.

In another data set the target is Cytochrome P450 3A4 (Homo sapiens, UniProt P08684). Put plainly: Drug metabolism assessed as human recombinant CYP3A4-mediated 17-hydroexemestane formation rate per pmol of enzyme at 10 uM after 10 mins.
For another data set, the target named is Cytochrome P450 3A5 (Homo sapiens, UniProt P20815). The data set can be described thus: Drug metabolism assessed as human recombinant CYP3A5-mediated 17-hydroexemestane formation rate per pmol of enzyme at 10 uM after 10 mins.
In a further data set the target is Cytochrome P450 2C9 (Homo sapiens, UniProt P11712). The data set can be described thus: Drug metabolism assessed as human recombinant CYP2C9-mediated 17-hydroexemestane formation rate per pmol of enzyme at 10 uM after 10 mins.
The subject of another data set is Liver microsome. The data set can be described thus: Drug metabolism in human liver microsomes assessed as retention time treated with 300 uM of exemestane after 10 mins by HPLC with UV analysis. For orientation: Liver microsomes are a subcellular fraction often used to study metabolism.

Chain of Cytochrome P450 2C9 (P11712 whole entry): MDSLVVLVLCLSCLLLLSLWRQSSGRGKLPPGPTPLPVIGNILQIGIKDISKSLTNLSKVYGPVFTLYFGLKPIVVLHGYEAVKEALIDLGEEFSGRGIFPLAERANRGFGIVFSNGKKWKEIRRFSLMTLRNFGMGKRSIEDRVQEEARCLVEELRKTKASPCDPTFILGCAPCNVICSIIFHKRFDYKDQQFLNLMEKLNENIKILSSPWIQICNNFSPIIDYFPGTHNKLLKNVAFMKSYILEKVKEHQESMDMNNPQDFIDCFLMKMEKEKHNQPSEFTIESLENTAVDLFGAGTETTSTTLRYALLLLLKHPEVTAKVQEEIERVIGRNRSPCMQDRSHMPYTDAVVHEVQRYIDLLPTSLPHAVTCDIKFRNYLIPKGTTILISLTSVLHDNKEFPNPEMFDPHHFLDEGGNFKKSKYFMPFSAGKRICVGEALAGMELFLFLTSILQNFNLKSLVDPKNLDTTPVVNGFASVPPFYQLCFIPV
Chain of Cytochrome P450 3A4 (P08684 whole entry): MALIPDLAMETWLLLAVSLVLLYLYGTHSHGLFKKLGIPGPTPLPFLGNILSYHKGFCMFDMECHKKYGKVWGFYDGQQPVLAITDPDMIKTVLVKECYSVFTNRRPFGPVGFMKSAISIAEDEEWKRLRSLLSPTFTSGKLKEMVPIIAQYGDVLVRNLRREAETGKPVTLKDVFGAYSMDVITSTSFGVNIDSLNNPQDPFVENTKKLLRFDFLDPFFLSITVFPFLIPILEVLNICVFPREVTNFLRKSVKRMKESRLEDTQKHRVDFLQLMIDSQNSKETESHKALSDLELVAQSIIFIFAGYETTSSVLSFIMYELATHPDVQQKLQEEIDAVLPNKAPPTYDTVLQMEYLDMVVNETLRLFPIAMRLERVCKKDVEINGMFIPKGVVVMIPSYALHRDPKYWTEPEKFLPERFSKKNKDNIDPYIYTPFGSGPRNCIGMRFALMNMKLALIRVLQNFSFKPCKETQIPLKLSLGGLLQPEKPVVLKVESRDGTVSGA
Chain of Cytochrome P450 3A5 (P20815 whole entry): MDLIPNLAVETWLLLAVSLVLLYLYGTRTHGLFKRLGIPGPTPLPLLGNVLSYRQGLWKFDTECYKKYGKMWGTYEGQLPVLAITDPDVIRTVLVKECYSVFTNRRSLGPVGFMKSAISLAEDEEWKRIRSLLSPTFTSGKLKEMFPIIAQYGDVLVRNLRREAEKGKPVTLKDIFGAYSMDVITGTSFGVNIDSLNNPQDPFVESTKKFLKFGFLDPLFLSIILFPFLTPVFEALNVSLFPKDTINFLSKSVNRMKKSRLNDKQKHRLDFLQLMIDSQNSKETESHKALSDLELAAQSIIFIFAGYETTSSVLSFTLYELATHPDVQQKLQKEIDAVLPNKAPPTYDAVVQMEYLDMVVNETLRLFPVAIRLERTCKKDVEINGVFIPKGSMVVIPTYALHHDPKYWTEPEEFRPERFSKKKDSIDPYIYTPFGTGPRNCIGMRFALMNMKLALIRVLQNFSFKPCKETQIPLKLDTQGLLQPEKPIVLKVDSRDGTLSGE

`C=C1C[C@@H]2[C@H](CC[C@]3(C)C(O)CC[C@@H]23)[C@@]2(C)C=CC(=O)C=C12` (stereo partly specified): the Drug metabolism on Cytochrome P450 1A1 is 1.09 pmol/min; on Cytochrome P450 2A6, 0.51 pmol/min; on Cytochrome P450 3A4, 0.17 pmol/min; on Cytochrome P450 3A5 it was 0.21 pmol/min; at Cytochrome P450 2C9 it was “metabolite_not_detected”. Further, the Retention_time in the data set with Liver microsome is on record as 13.1 min.
